# Laboratory results taken from the supplement of paper PMC12463676, “Small-molecule dissolution of stress granules by redox modulation benefits ALS models” (Nature Chemical Biology, 2025).
# Tests used:
# lipoamide = compound: NC(=O)CCCCC1CCSS1 [lipoamide]; assay: thermal stability z-score vs DMSO; higher = more thermally stabilized by treatment; details: HeLa, lipoamide concentration 100 µM
# Experimental: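 Cellular thermal proteome profiling in HeLa cells. Cells were treated with 100 µM lipoamide for 1 h, with or without 1 mM arsenate for a further 1 h, then heated to ten temperatures (37-66.3 °C), and soluble protein was quantified by TMT mass spectrometry relative to 0.1% DMSO controls. The thermal stability score (sum of log2 fold changes minus the abundance score) was transformed to a z-score; mean of n = 3 experiments.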
# potassium arsenate = compound: O=[As]([O-])(O)O.[K+] [potassium arsenate]; assay: as above; details: HeLa; arsenate concentration 1 mM
# Experimental: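 Cellular thermal proteome profiling in HeLa cells treated with 1 mM arsenate for 1 h (DMSO pretreatment), heated to ten temperatures (37-66.3 °C). Soluble protein was quantified by TMT mass spectrometry relative to DMSO controls; the thermal stability score was transformed to a z-score; mean of n = 3 experiments.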
# [1] = arsenate co-treatment: 1 mM arsenate 1 h
# 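Further: each temperature applied for 3 min, abundance score taken as mean log2 fold change at the two lowest temperatures, z-score obtained by mean subtraction and division by SD.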
# Sequence of UniProt Q9NQT4 (Q9NQT4 whole entry): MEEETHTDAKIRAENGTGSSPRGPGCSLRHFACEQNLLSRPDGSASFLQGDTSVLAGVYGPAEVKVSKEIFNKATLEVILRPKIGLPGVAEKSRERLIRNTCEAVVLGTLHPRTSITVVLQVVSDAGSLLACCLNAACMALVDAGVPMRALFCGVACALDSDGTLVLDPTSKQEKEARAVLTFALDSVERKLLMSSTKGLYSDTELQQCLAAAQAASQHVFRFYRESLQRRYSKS
# Sequence of UniProt P98173 (P98173 whole entry): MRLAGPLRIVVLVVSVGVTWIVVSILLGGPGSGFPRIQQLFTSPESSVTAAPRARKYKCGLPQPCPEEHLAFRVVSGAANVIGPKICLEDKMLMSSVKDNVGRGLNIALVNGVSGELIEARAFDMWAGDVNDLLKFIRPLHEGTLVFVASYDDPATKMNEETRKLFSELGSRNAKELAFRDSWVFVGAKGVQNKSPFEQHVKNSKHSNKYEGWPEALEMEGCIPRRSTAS
# Sequence of UniProt O00471 (O00471 whole entry): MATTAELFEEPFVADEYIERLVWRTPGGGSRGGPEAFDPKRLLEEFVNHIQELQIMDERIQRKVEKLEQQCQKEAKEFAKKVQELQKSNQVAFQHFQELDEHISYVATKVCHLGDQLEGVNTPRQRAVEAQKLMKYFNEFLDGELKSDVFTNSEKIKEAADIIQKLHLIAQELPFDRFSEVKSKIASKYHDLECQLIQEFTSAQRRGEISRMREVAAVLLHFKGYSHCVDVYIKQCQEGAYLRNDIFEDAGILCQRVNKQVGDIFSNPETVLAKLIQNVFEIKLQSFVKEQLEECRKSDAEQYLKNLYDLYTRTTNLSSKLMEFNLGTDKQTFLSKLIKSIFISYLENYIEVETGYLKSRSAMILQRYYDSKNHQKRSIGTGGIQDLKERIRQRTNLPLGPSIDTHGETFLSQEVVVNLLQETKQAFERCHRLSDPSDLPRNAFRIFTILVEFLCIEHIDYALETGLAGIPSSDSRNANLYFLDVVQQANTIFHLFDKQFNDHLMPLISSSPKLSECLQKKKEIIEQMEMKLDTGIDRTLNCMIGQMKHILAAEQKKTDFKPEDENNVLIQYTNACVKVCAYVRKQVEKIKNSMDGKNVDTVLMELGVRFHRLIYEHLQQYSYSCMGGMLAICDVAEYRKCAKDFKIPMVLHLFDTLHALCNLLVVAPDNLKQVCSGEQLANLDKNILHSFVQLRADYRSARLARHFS
# Sequence of UniProt Q8TAG9 (Q8TAG9 whole entry): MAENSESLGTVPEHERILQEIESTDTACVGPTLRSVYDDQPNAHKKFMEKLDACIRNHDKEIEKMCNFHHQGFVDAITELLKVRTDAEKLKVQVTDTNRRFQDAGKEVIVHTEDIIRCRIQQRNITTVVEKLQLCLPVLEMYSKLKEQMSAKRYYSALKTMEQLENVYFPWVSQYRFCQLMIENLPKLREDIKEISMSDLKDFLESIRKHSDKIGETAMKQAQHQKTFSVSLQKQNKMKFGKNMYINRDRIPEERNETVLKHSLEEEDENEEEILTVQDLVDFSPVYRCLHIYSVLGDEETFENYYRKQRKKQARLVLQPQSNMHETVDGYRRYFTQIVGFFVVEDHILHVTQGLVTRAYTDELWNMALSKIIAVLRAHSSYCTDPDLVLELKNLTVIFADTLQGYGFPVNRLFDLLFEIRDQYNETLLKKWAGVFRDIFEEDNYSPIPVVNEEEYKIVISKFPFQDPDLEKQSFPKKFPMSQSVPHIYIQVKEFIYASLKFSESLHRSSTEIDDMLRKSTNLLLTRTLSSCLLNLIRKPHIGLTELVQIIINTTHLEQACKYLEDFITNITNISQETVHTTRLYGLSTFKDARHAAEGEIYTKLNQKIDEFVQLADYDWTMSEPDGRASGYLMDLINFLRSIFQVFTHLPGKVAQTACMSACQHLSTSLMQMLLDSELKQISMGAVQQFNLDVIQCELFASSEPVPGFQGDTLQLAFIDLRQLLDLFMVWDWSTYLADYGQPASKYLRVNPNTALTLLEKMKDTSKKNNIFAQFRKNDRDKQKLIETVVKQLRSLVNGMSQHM
# Sequence of UniProt Q9UBQ6 (Q9UBQ6 whole entry): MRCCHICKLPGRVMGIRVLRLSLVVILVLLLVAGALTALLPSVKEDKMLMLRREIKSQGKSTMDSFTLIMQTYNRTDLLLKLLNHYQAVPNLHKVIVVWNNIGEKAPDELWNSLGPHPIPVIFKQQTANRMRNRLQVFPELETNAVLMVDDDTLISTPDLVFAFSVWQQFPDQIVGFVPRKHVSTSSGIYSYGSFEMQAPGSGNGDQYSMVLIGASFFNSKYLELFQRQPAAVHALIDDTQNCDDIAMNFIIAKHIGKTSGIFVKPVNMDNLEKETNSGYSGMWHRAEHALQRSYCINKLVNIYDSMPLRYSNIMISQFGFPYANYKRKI
# Sequence of UniProt Q6P587 (Q6P587 whole entry): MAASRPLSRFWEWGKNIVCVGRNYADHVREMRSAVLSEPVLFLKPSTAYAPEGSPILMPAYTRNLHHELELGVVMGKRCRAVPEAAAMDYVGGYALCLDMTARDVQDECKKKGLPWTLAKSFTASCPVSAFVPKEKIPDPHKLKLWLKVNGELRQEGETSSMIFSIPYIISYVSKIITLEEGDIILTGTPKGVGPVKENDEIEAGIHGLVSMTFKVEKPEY
# Sequence of UniProt Q8IYI6 (Q8IYI6 whole entry): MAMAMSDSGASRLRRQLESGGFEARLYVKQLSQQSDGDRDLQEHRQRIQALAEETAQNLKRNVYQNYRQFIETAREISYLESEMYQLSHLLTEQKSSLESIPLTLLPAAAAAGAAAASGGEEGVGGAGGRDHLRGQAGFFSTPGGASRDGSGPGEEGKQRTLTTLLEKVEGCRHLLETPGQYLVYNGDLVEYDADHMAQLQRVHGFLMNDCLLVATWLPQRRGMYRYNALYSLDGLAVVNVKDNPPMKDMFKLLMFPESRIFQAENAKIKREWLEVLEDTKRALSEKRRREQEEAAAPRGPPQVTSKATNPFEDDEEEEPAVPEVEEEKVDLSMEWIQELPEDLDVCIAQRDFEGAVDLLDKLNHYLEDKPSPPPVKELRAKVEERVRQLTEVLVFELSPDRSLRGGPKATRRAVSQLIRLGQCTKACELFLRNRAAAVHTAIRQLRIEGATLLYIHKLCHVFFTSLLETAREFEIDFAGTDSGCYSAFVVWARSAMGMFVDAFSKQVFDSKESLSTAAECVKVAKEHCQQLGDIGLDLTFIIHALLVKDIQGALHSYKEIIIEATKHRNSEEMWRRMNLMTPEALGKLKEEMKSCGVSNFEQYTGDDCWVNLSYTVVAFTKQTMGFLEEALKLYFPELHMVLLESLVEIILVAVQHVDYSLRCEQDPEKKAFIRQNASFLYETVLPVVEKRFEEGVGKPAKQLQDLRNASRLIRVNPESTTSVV
# Sequence of UniProt Q9NQT5 (Q9NQT5 whole entry): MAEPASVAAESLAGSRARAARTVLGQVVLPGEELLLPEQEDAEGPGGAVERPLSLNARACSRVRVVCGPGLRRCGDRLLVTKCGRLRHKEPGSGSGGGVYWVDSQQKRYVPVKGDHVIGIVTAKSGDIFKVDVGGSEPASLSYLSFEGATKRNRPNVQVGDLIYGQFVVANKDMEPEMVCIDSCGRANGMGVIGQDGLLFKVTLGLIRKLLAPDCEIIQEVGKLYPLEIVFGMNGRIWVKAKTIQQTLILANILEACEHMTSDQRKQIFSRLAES
# Sequence of UniProt Q0VG06 (Q0VG06 whole entry): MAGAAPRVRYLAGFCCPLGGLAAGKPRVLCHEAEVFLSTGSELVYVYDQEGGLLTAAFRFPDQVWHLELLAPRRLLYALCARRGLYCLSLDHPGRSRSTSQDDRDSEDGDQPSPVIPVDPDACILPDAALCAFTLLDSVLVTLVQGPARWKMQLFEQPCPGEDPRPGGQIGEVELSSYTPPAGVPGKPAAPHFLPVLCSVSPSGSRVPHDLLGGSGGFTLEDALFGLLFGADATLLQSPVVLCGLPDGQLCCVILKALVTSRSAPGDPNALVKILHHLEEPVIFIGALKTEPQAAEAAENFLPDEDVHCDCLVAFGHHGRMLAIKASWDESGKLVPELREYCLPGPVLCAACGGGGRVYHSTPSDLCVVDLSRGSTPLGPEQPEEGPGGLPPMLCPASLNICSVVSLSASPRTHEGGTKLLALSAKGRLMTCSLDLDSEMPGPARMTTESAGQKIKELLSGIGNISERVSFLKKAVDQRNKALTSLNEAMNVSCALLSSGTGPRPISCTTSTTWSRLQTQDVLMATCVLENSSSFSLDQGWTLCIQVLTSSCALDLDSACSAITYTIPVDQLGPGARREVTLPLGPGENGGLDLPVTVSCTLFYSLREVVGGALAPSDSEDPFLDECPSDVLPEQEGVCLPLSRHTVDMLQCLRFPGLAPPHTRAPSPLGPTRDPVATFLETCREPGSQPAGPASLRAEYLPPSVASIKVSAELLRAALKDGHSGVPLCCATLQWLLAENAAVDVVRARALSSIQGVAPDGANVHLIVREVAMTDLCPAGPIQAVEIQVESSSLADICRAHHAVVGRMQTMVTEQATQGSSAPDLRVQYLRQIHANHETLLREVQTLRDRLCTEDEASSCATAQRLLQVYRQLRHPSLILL
# Sequence of UniProt Q13158 (Q13158 whole entry): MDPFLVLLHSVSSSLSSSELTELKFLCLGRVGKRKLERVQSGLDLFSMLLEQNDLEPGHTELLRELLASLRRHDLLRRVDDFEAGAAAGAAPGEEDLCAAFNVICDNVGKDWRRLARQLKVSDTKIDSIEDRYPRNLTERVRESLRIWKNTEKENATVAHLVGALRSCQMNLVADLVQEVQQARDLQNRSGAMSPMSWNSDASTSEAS
# Sequence of UniProt Q13868 (Q13868 whole entry): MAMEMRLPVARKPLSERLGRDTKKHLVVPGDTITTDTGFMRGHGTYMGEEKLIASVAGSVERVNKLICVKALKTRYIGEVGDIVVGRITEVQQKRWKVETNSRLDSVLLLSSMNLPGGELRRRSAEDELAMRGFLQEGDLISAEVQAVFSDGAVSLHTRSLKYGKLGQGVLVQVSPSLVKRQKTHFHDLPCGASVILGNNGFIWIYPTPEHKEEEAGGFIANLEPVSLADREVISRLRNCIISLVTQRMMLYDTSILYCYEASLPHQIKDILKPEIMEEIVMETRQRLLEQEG
Target,thermal stability z-score (lipoamide; [1]),thermal stability z-score (lipoamide; arsenate co-treatment: none),thermal stability z-score (potassium arsenate)
ETFB (UniProt P38117),-0.321,0.54,-1.2
ETFDH (UniProt Q16134),0.283,0.37,-0.886
ETHE1 (UniProt O95571),0.217,-0.107,0.0234
ETNK1 (UniProt Q9HBU6),0.392,1.06,0.244
EVI5 (UniProt O60447),-0.272,0.322,0.704
EVL (UniProt Q9UI08),-0.0697,0.187,-0.462
EVPL (UniProt Q92817),0.263,0.134,0.499
EWSR1 (UniProt Q01844),0.0495,0.235,-0.604
EXD2 (UniProt Q9NVH0),-0.228,-0.168,-0.499
EXOC1 (UniProt Q9NV70),-0.268,0.043,0.0191
EXOC2 (UniProt Q96KP1),-0.195,-0.453,0.575
EXOC3 (UniProt O60645),-0.653,-0.0663,0.149
EXOC4 (UniProt Q96A65),-0.433,-0.0966,0.0526
EXOC5 (UniProt O00471),-0.0743,0.105,-0.0647
EXOC6 (UniProt Q8TAG9),-0.242,-0.374,-0.201
EXOC6B (UniProt Q9Y2D4),0.36,1.01,0.332
EXOC7 (UniProt Q9UPT5),-0.927,-0.435,-0.227
EXOC8 (UniProt Q8IYI6),-0.0845,0.0172,-0.106
EXOG (UniProt Q9Y2C4),-0.359,-0.451,0.587
EXOSC1 (UniProt Q9Y3B2),0.0998,-1.26,-0.615
EXOSC2 (UniProt Q13868),0.567,0.234,-0.593
EXOSC3 (UniProt Q9NQT5),0.273,-0.000548,-0.385
EXOSC4 (UniProt Q9NPD3),0.821,-0.104,-0.872
EXOSC5 (UniProt Q9NQT4),1.79,1.03,-0.564
EXOSC6 (UniProt Q5RKV6),0.123,0.0946,-1.85
EXOSC7 (UniProt Q15024),0.482,0.0621,-1.11
EXOSC8 (UniProt Q96B26),0.692,-0.359,-0.573
EXOSC9 (UniProt Q06265),0.0277,-1.24,-1.59

Target,thermal stability z-score (lipoamide; [1]),thermal stability z-score (lipoamide; arsenate co-treatment: none),thermal stability z-score (potassium arsenate)
EXOSC10 (UniProt Q01780),0.0236,-0.0314,-0.437
EXT2 (UniProt Q93063),-1.16,-0.953,-0.573
EXTL2 (UniProt Q9UBQ6),1.05,0.893,0.453
EYA4 (UniProt O95677),0.0211,-0.116,0.168
EZH2 (UniProt Q15910),-0.0218,-0.132,-0.158
EZR (UniProt P15311),1.01,0.661,-0.481
F11R (UniProt Q9Y624),0.865,0.653,0.151
FA2H (UniProt Q7L5A8),-0.355,0.132,-0.327
FAAP100 (UniProt Q0VG06),0.0838,-0.0268,-0.167
FADD (UniProt Q13158),-0.805,0.901,0.325
FADS1 (UniProt O60427),0.469,0.181,0.226
FADS3 (UniProt Q9Y5Q0),-0.431,0.482,-0.618
FAF1 (UniProt Q9UNN5),0.777,0.869,0.738
FAF2 (UniProt Q96CS3),-0.435,-0.684,-0.262
FAH (UniProt P16930),0.241,-0.125,-0.623
FAHD1 (UniProt Q6P587),0.565,0.339,0.21
FAHD2A (UniProt Q96GK7),0.146,-0.0859,-0.0563
FAIM (UniProt Q9NVQ4),1.03,0.411,0.336
FAM3A (UniProt P98173),0.0593,-0.109,0.363
FAM3C (UniProt Q92520),-1.06,-0.89,0.805
FAM8A1 (UniProt Q9UBU6),-0.425,-0.579,-0.315
FAM20B (UniProt O75063),-1.35,-1.05,0.335
FAM21A (UniProt Q641Q2),0.0165,-0.365,0.352
FAM21C (UniProt Q9Y4E1),0.0661,0.32,0.0902
FAM32A (UniProt Q9Y421),0.832,0.827,0.375
FAM45BP|FAM45A,0.335,1.28,1.44
FAM46A (UniProt Q96IP4),-0.0743,0.0046,-0.0735
